Source: US20020004458A1, “Methods for inducing production of isoflavone levels in plants using nuclear receptor ligands” (priority 2000, published 2002)

Columns and labels:
Format in all cases: in vivo
[1] = system: soybean cotyledons (cultivar Williams); assay: Soybean cut cotyledon assay: loading of daidzein conjugate / isoflavone pools; conditions: for Percent increase in total daidzein conjugate pools compared to a water control (Table 2) / Percent increase in total daidzein conjugate pools compared to a water control (Table 4): 33 uM, average of two experiments
Protocol: (§1) The cut cotyledon assay is used to investigate both the ability of the nuclear receptor ligand to activate basal elicitation competency in plants, and to evaluate the ability of a second compound such as the glucan defense elicitor from the fungal pathogen Phytophthora sojae to enhance glyceollin elicitation competency in plants in which the isoflavone pools were “loaded” by the action of the ligand. The level of isoflavones in the cotyledon tissues are measured after the addition of different nuclear receptor ligands to determine the effectiveness of each in inducing the basal production of isoflavones in cotyledon tissues. In such studies, the addition of the nuclear receptor ligand first “primes” the cut cotyledon, i.e., increases the levels of the isoflavone daidzen. That is, the competency for the elicitation of the phytoalexin glyceollin in response to the glucan elicitor from Phytophthora sojae is already partially activated. This means that increases in the isoflavone daidzein, which is the precursor for glyceollin, are usually rapidly shunted into glyceollin when the glucan defense elicitor is added to the system. Thus, the ability of the ligand to enhance glyceollin elicitation competency by “loading” the isoflavone pools can also be measured.
(§2) Cotyledons from 7-8 day old soybean seedlings are removed from the plant and cut on the lower surface to expose subepidermal tissues. A 30 p,L drop of test compound (elicitor and/or loader) is placed on the cut surface. Ten cotyledons are used per treatment and arranged in a petri plate containing a wet filter paper to keep the cotyledons moist. After incubation at room temperature at approximately 200 p.Einsteins of light for 48 hr the cotyledon tissues are harvested for analysis. Tissues for analysis are harvested by cutting a vertical column of cells from the cotyledon using a number 1 cork borer. The column of cells is then subsampled by cutting slices of cells progressively away from the original cut surface. The first section is approximately 4 cell layers thick and the second two are approximately 8 cell layers thick. These allow the examination of proximal and distal effects of treatments, respectively. Tissues are analyzed by HPLC as noted below. Full details of this assay can be found in the publication: Graham, T. L., and Graham, M. Y. 1991. Glyceollin Elicitors Induce Major But Distinctly Different Shifts in Isoflavonoid Metabolism in Local and Distal Cell Populations. Molecular Plant Microbe Interactions 4:60-68, which is specifically incorporated herein by reference.
(§3) High performance liquid chromatography (HPLC) is the . method of choice for determining the levels of isoflavone defense compounds in soybean. With a single HPLC analysis, one gets a complete and quantitative profile of up to 50 or more aromatic compounds, including all the isoflavones and their conjugates and the phytoalexins, including glyceollin. As little as 20 mg of plant tissue is needed and the method can be readily applied to cotyledon, leaf or any soybean tissue. This analytical method allows us to determine the nmoles/gm of each metabolite, which can then readily be processed to compare the percent increase or decrease of a given metabolite in comparison to either water or glucan treated control tissues. Routinely, tissues are extracted in 80% ethanol and subjected to water/acetonitrile gradient elution from a C18 reverse phase HPLC column. Full details of this procedure can be found in the publication: Graham, T. L. 1991. A Rapid, High Resolution High Performance Liquid Chromatography Profiling Procedure for Plant and Microbial Aromatic Secondary Metabolites. Plant Physiology 95:584-593, which is specifically incorporated herein by reference.
(§4) Cotyledons (10 per treatment) from 7 day old Williams variety soybean were treated with a formulation comprising estrogens, estrogen agonists, and peroxisome proliferators. […]

[2] = system: soybean cotyledons (cultivar Williams); assay: Soybean cut cotyledon assay: potentiation of glyceollin (phytoalexin) elicitation by glucan elicitor; conditions: 33 uM, applied immediately before glucan elicitor and 10 uM orthovanadate, 48 hr, average of two experiments
Protocol: as §1, §2, §3, §4

[3] = system: soybean cotyledons (cultivar Williams); assay: Soybean snapped cotyledon assay: loading of isoflavone (daidzein) conjugate pools
Protocol: The snapped cotyledon assay is a minimal wound assay used to investigate the effects of test compounds in a non-primed background. The assay is performed by snapping cotyledons in two and placing the petiole side down in 0.5% water agar. Ten snapped cotyledons are used per treatment, and the subepidermal cells exposed by snapping are treated with glucan defense elicitor and/or the effector being examined. The cotyledons are incubated in the light for 48 hr as in the cut cotyledon assay. Both proximal (first cell layer) and distal (second and third cell layers) are harvested for analysis by HPLC (see below). Full details of this assay can be found in the publication: Graham, T. L. and Graham, M. Y. 1996. Signaling in soybean phenylpropanoid responses: dissection of primary, secondary and conditioning-effects of light, wounding and elicitor treatments. Plant Physiol. 110:1123-1133, which is specifically incorporated herein by reference.
The snapped cotyledon assay is “naive”. That is, it is not pre-disposed or primed for competency for the elicitation of phytoalexin glyceollin in response to the glucan elicitor. Thus, treatment with the glucan elicitor induces the formation of the isoflavones daidzein and genistein, but very little glyceollin. This is an excellent assay to study the effects of a chemical treatment on isoflavone metabolism by itself or in combination with the glucan. In the absence of the glucan, it gives an excellent picture of the effects of the compound alone on isoflavone metabolism. In the presence of the glucan, it tells us if the test compound can induce elicitation competency for the glyceollin response to the glucan.
as §3
Cotyledons (10 per treatment) from 7 day old Williams variety soybean were treated with a formulation comprising estrogens, estrogen agonists, and peroxisome proliferators. Each NRL was dissolved either in water or first in isopropanol to give a saturated solution followed by rapid dilution in water. […] NRLs were tested over a concentration range of about 10 uM to 1 mM, using serial 3 fold dilutions from 1 mM. NRLs were tested both alone and in the presence of 30 ug/ml of the glucan elicitor from the fungal pathogen Phytophthora sojae. Concentrations of the NRL and glucan noted here are final concentrations on the treated cotyledon.
The exposed surface of each snapped cotyledon was treated with 7 μL of the NRL followed by 7 μL of the glucan or water. Cotyledons were incubated in constant light (200 t;,Einsetins) for 48 hr. At 48 hr, a thin (translucent) section was harvested from the treated cotyledon surface. Sections from the 10 cotyledons for each treatment were pooled and extracted in 80% ethanol (400 μL for each 50 mG fresh weight). The extract was then subjected to HPLC as described above. […]

soybean primary leaves = assay: Soybean leaf infiltration: isoflavone increases after ergosterol treatment; conditions: 48 hours, over control
Protocol: as §3
True leaves of soybean plants are also treated as described above in Example 1. For tests on true leaves of soybean or other plants, two methods are used. In the laboratory a small spot on the leaves is vacuum filtrated using a filter disc platform hooked to a water aspirator. The leaf is placed on the filter disc platform and mild suction applied. A drop of the glucan elicitor and the nuclear receptor ligand formulation is then placed on the exposed surface of the leaf and allowed to infiltrate the tissue through the leaf stomatal pores. For the greenhouse or field, the nuclear receptor ligand is added to a surfactant to emulsify and disperse the ligand. In all of these assays, the tissues are again analyzed by HPLC as described above.
Moreover, the isoflavone formononetin is normally found only as a trace metabolite in soybean tissues. It is commonly found in chickpea. Treatment of soybean leaves with a nuclear receptor ligand, however, caused very significant accumulations of daidzein and formononetin aglycones and genistein conjugates. […] Ergosterol was directly infiltrated into the primary leaves, which were analyzed after 48 hours.

[4] = system: cotyledons of lima bean, mung bean, green bean, peanuts, and chickpeas; assay: Cut cotyledon assay on legumes other than soybean: increase in isoflavones; conditions: ergosterol at 100 p,M; range in each plant species; isoflavones identified by ultraviolet spectra
[5] = cut cotyledon assay, Williams cotyledons, concentrations 50-500 p,M
[6] = 33 uM, average of two experiments
[7] = ergosterol 1 micromolar infiltrated into primary leaves
[8] = ergosterol 10 micromolar infiltrated into primary leaves
[9] = ergosterol 100 micromolar infiltrated into primary leaves

SMILES	Range of increase of isoflavones over the concentration range [1, 5]	Percent increase in glyceollin elicitation compared to a glucan elicitor control [2]	Percent increase in total daidzein conjugate pools compared to a water control (Table 2) ([1]; cut cotyledon assay)	Percent increase in total daidzein conjugate pools compared to a water control (Table 4) ([1]; cut cotyledon assay)	Percent increase in daidzein conjugate pools compared to a water control (Table 3) [3, 6]	further results
CC(=O)[C@H]1CC[C@H]2[C@@H]3CC=C4C[C@@H](O)CC[C@]4(C)[C@H]3CC[C@]12C [5-pregnenolone]	5-20%					
C[C@]12CC[C@@H]3c4ccc(O)cc4CC[C@H]3[C@@H]1CC[C@@H]2O [Beta-Estradiol, 17-beta-estradiol]		205%	64%	64%	+64%	
CC(C)(Oc1ccccc1Cl)C(=O)O [CPMPA, 2-(o-chlorophenoxy)-2-methylpropionic acid]					+42%	
CC(C)(Oc1ccc(C2CC2(Cl)Cl)cc1)C(=O)O (centres unmarked) [Ciprofibrate, ciprofibrate]		199%	52%	52%	+52%	
O=c1oc2cc(O)ccc2c2oc3cc(O)ccc3c12 [Coumestrol]		226%	54%	54%		
C/C=C(/C(=C/C)c1ccc(O)cc1)c1ccc(O)cc1 [Dienestrol, dienestrol]		75%	28%	28%	+28%	
CC/C(=C(/CC)c1ccc(O)cc1)c1ccc(O)cc1 [Diethylstilbestrol, diethylstilbestrol]		86%	36%	38%		
CC(C)[C@@H](C)/C=C/[C@@H](C)[C@H]1CC[C@H]2C3=CC=C4C[C@@H](O)CC[C@]4(C)[C@H]3CC[C@]12C [Ergosterol, ergosterol]		260%	60%	60%	+60%	Increase in Daidzein Aglycone (soybean primary leaves; [7]): 5X; Increase in Formononetin Aglycone (soybean primary leaves; [7]): 24X; Increase in Genistein Conjugates (soybean primary leaves; [7]): 2X; Increase in Daidzein Aglycone (soybean primary leaves; [8]): 3X; Increase in Formononetin Aglycone (soybean primary leaves; [8]): 27X; Increase in Genistein Conjugates (soybean primary leaves; [8]): 1.1X; Increase in Daidzein Aglycone (soybean primary leaves; [9]): 2.4X; Increase in Formononetin Aglycone (soybean primary leaves; [9]): 4X; Increase in Genistein Conjugates (soybean primary leaves; [9]): None; Increases in isoflavones [4]: 2-60 fold
C[C@]12CC[C@@H]3c4ccc(O)cc4CC[C@H]3[C@@H]1C[C@@H](O)[C@@H]2O [Estriol, estriol]		177%	45%	45%	+45%	
O=c1c(-c2ccc(O)cc2)coc2cc(O)cc(O)c12 [Genistein, genistein]						Percent increase in daidzein conjugate pools compared to a water control (Table 3) ([3]; genistein applied as smaller doses on an hourly basis for 8 hours): +54%
CC(=O)[C@H]1CC[C@H]2[C@@H]3CCC4=CC(=O)CC[C@]4(C)[C@H]3CC[C@]12C [Progesterone, progesterone]	20-60%					
C[C@H]1CCCC(=O)CCC/C=C/c2cc(O)cc(O)c2C(=O)O1 [Zearalenone, zearalenone]		242%	58%	58%		
C[C@]12CC[C@@H](O)C[C@@H]1CC[C@@H]1[C@@H]2CC[C@]2(C)C(=O)CC[C@@H]12 [androsterone]						Range of increase of isoflavones over the concentration range ([1]; in vivo): 30-40%
C[C@]12CCC(=O)C=C1CC[C@@H]1[C@@H]2C(=O)C[C@@]2(C)[C@H]1CC[C@]2(O)C(=O)CO [cortisone]	30-100%					
C[C@@H]1C[C@H]2[C@@H]3CCC4=CC(=O)C=C[C@]4(C)[C@@]3(F)[C@@H](O)C[C@]2(C)[C@@]1(O)C(=O)CO [dexamethasone]	0-10%					
C[C@]12CCC(=O)C=C1CC[C@@H]1[C@@H]2[C@@H](O)C[C@@]2(C)[C@H]1CC[C@]2(O)C(=O)CO [hydrocortisone]	25-50%					
